The results in this text go back to US11118200B2, “Method for preparing amines from aldehydes and ketones by biocatalysis” (COMMISSARIAT A L'ENERGIE ATOMIQUE ET AUX ENERGIES …, priority 2017, dated 2021).

What all share (test): Screening of carbonyl-containing compounds with ammonia as amine source (specific activity, absorbance at 340 nm)
Assay [1] deals with enzyme of SEQ ID NO:4. The assay is classed as biochemical, Aminomonas paucivorans DSM 12260. On the set-up: key to Detection of the expected compound, SEQ ID NO: 4: d: detected activity; nd: not detected activity. Conditions: for Detection of the expected compound, SEQ ID NO: 4 / Specific activity, SEQ ID NO: 4: ammonia as amine source; for Detection of the expected compound, SEQ ID NO: 4: pH 9.5, 25° C.; for activity of enzyme of SEQ ID NO:4 towards the substrate (in words): reductive amination; for Specific activity, SEQ ID NO: 4: 0.2 mM NADH (best of NADH/NADPH), 10 mM of carbonyl-containing compound. The protocol:
All the reactions were conducted at 25° C. in spectrophotometric cell (10 mm light path). To a mixture of ammonium formate buffer (2 M NH4HCO2/NH4OH, pH 9.5), NADH or NADPH (0.2 mM) and an appropriate amount of purified enzyme was added. Carbonyl-containing compound (5 or 10 mM) is then added to initiate the reaction (reaction final volume 100 μL). The initial slope measured at 340 nm determined the specific activity of the enzyme according to Beer-Lambert's law and the molar absorptivity of β-NADH (ϵ=6298 M^−1 cm^−1).

The subject of assay [2] is enzyme of SEQ ID NO:2. The assay is classed as biochemical, Cystobacter fuscus DSM 2262. Conditions: for Specific activity, SEQ ID NO: 2: 10 mM of carbonyl-containing compound, ammonia as amine source; for activity of enzyme of SEQ ID NO:2 towards the substrate (in words): reductive amination. The protocol:
(§1) All the reactions were conducted at 25° C. in spectrophotometric cell (10 mm light path). To a mixture of ammonium formate buffer (2 M NH4HCO2/NH4OH, pH 9.5), NADH or NADPH (0.2 mM) and an appropriate amount of purified enzyme was added.

The test system of assay [3] is enzyme of SEQ ID NO:1. Type of assay: biochemical, Mycobacterium smegmatis. Conditions: for Specific activity, SEQ ID NO: 1: 10 mM of carbonyl-containing compound, ammonia as amine source; for activity of enzyme of SEQ ID NO:1 towards the substrate (in words): reductive amination. Here is the method: as §1
The subject of assay [4] is enzyme of SEQ ID NO:3. The assay is classed as biochemical, Microbacterium sp. MA1. Conditions: for Specific activity, SEQ ID NO: 3: 10 mM of carbonyl-containing compound, ammonia as amine source; for activity of enzyme of SEQ ID NO:3 towards the substrate (in words): reductive amination. Here is the method:
as §1

The mark [5] stands for this setting: 0.2 mM NADPH (best of NADH/NADPH).
Setting [6] is: 0.2 mM NADH (best of NADH/NADPH).

Marks after values point to notes of the source that are not given here.

On to `O=Cc1ccccc1`, for which, in assay [1], the “Detection of the expected compound, SEQ ID NO: 4” value (shortened to “Detection … SEQ ID NO: 4”) was “d”.
As for `CC1CCC(=O)CC1`, in assay [2] (setting [5]), the “Specific activity, SEQ ID NO: 2” value is reported as 20.4^b mU.mg^-1. Moreover, the “Specific activity, SEQ ID NO: 1” value in assay [3] (setting [6]) is given as 85.2^a mU.mg^-1. For the same compound, the “Specific activity, SEQ ID NO: 3” value in assay [4] (setting [5]) is recorded as 170.1^b mU.mg^-1.
As to `CC1CCCC1=O` (stereo not drawn), the “Specific activity, SEQ ID NO: 2” value in assay [2] (setting [5]) was 8.8^b mU.mg^-1. In assay [3] (setting [5]), the “Specific activity, SEQ ID NO: 1” value is recorded as 65.2^b mU.mg^-1. Further, the “Specific activity, SEQ ID NO: 3” value in assay [4] (setting [5]) is 90.3^b mU.mg^-1.
In the same order, the values of `CCC(=O)CC` are 3.6^b mU.mg^-1, 48.2^b mU.mg^-1 and 192.0^b mU.mg^-1.
In the same order, the values of `CC(=O)C(C)O` (stereo not drawn) are 42.4^b mU.mg^-1, 177.7^b mU.mg^-1 and 324.4^b mU.mg^-1.
`CC1CC(=O)CC(C)C1` (stereo not drawn): in assay [3] (setting [5]), the “Specific activity, SEQ ID NO: 1” value is listed as 9.7^b mU.mg^-1. For the same compound, the “Specific activity, SEQ ID NO: 3” value in assay [4] (setting [5]) is listed as 61.6^b mU.mg^-1.
In the case of `O=C1CCCC1`, in assay [2] (setting [5]), the “Specific activity, SEQ ID NO: 2” value is on record as 24.2^b mU.mg^-1. In addition, the “Specific activity, SEQ ID NO: 1” value in assay [3] (setting [5]) is on record as 5.6^b mU.mg^-1. Also, the “Specific activity, SEQ ID NO: 3” value in assay [4] (setting [5]) was 60.6^b mU.mg^-1.
With `CC1CCC(=O)C1` (stereo not drawn), the “Specific activity, SEQ ID NO: 2” value in assay [2] (setting [5]) is listed as 13.9^b mU.mg^-1. The “Specific activity, SEQ ID NO: 1” value in assay [3] (setting [5]) was 7.7^b mU.mg^-1. In addition, the “Specific activity, SEQ ID NO: 3” value in assay [4] (setting [5]) is listed as 23.3^b mU.mg^-1.
`CC(=O)C1CCCCC1`: the “Specific activity, SEQ ID NO: 1” value in assay [3] (setting [5]) is 2.1^b mU.mg^-1. In addition, the “Specific activity, SEQ ID NO: 3” value in assay [4] (setting [5]) is on record as 64.0^b mU.mg^-1.
As for `O=C1C=CCCC1`, in assay [2] (setting [6]), the “Specific activity, SEQ ID NO: 2” value is reported as 2.5^a mU.mg^-1. In addition, the “Specific activity, SEQ ID NO: 1” value in assay [3] (setting [5]) is listed as 7.4^b mU.mg^-1. In addition, the “Specific activity, SEQ ID NO: 3” value in assay [4] (setting [5]) was 37.1^b mU.mg^-1.
Take `CCCC(=O)CC`: in assay [3] (setting [5]), the “Specific activity, SEQ ID NO: 1” value was 6.8^b mU.mg^-1. Further, the “Specific activity, SEQ ID NO: 3” value in assay [4] (setting [5]) was 28.1^b mU.mg^-1.
`CC(=O)C(C)C`: the “Specific activity, SEQ ID NO: 2” value in assay [2] (setting [6]) is on record as 68.2^a mU.mg^-1. Moreover, the “Specific activity, SEQ ID NO: 1” value in assay [3] (setting [5]) was 125.8^b mU.mg^-1. Besides, the “Specific activity, SEQ ID NO: 3” value in assay [4] (setting [5]) was 245.6^b mU.mg^-1.
In the case of `CC(=O)CC(N)C(=O)O` (stereo not drawn) [2-amino-4-oxopentanoic acid], the “activity of enzyme of SEQ ID NO:2 towards the substrate (in words)” value in assay [2] was “inactive”. The “activity of enzyme of SEQ ID NO:4 towards the substrate (in words)” value in assay [1] is “inactive”. For the same compound, the “activity of enzyme of SEQ ID NO:1 towards the substrate (in words)” value in assay [3] was “inactive”. Besides, the “activity of enzyme of SEQ ID NO:3 towards the substrate (in words)” value in assay [4] is “inactive”.
With `CC(=O)CCC(=O)O` [4-oxopentanoic acid], the “activity of enzyme of SEQ ID NO:2 towards the substrate (in words)” value in assay [2] was “inactive”. The “activity of enzyme of SEQ ID NO:4 towards the substrate (in words)” value in assay [1] is “inactive”. For the same compound, the “activity of enzyme of SEQ ID NO:1 towards the substrate (in words)” value in assay [3] is “inactive”. In addition, the “activity of enzyme of SEQ ID NO:3 towards the substrate (in words)” value in assay [4] is “inactive”.
Take `O=C1CCCCC1` [drawing 120]: in assay [1], the “Specific activity, SEQ ID NO: 4” value is on record as 9.82^a mU.mg^-1 and the “Detection … SEQ ID NO: 4” value is “d”.
Regarding `CCCCC=O` [drawing 122], in assay [1], the “Specific activity, SEQ ID NO: 4” value is 89.1^a mU.mg^-1 and the “Detection … SEQ ID NO: 4” value was “d”.
Take `CCC(C)C=O` (stereo not drawn) [drawing 124]: in assay [1], the “Specific activity, SEQ ID NO: 4” value is 129.6^a mU.mg^-1 and the “Detection … SEQ ID NO: 4” value is “d”.
With `CCCC(C)=O` [drawing 142], the “Specific activity, SEQ ID NO: 2” value in assay [2] (setting [5]) is 6.4^b mU.mg^-1. Besides, the “Specific activity, SEQ ID NO: 1” value in assay [3] (setting [5]) is given as 9.0^b mU.mg^-1. Further, in assay [4] (setting [5]), the “Specific activity, SEQ ID NO: 3” value is reported as 51.2^b mU.mg^-1.
For `CCCCC=O` [drawing 146], in assay [2] (setting [5]), the “Specific activity, SEQ ID NO: 2” value is 72.9^b mU.mg^-1. Further, the “Specific activity, SEQ ID NO: 1” value in assay [3] (setting [5]) is recorded as 26.8^b mU.mg^-1. The “Specific activity, SEQ ID NO: 3” value in assay [4] (setting [5]) was 57.8^b mU.mg^-1.
For `CCC(C)C=O` (stereo not drawn) [drawing 148], the “Specific activity, SEQ ID NO: 2” value in assay [2] (setting [6]) is reported as 231.9^a mU.mg^-1. The “Specific activity, SEQ ID NO: 1” value in assay [3] (setting [5]) was 75.2^b mU.mg^-1. Also, the “Specific activity, SEQ ID NO: 3” value in assay [4] (setting [6]) is on record as 159.4^a mU.mg^-1.
